Laboratory results from a melting point compilation (Tetko et al.; mined from patent text by program, amines drawn as free bases though some values may be those of a salt).

melting point [°C] | Compound
155 to 157 | COc1ccc2c(c1)C(Cc1ccnc(F)c1)(Cc1ccnc(F)c1)c1ccccc1C2=O
160 to 161 | O=C1Cc2cc(F)ccc2C(c2ccc(Cl)cc2)N1 (stereo not drawn)
184 to 186 | O=c1ccc2cc(OC3O[C@H](CO)[C@@H](O)[C@H](O)[C@H]3O)c(OCc3ccccc3)cc2o1 (stereo partly drawn)
152 to 153 | CCCCCc1ccc(-c2ncc(-c3ccc(O)cc3)cn2)cc1
246 to 248 | Nc1ccc(S(=O)(=O)c2cc(-c3ccccc3F)nc(N3CCCC3)c2)cc1
127 to 129 | O=[N+]([O-])c1cnc2cccnc2c1NCc1ccccc1
189 | CC(=O)Nc1nc(C)c(S(=O)(=O)N(C)CCO)s1
145 to 147 | Cc1ccc(S(=O)(=O)OCC2CCn3c(nc4ccccc43)S2)cc1 (stereo not drawn)
84 to 85 | OC(Cc1ccccc1)c1ccccc1Br (stereo not drawn)
142 to 144 | O=Cc1c2ccccc2c(OCCO)c2ccccc12
314 to 315 | COc1ccccc1-n1c(=O)[nH]c2c(C(N)=O)nc(Nc3ccccc3O)nc21
130 to 132 | CCN(CC)CC(=O)c1cc(C(=O)c2ccc3ccccc3c2)cn1C
138 to 139 | COC(=O)c1cc(=O)c2cc(F)ccc2o1
120 | Cn1ncnc1COc1nc2c(-c3ccccc3F)nncn2c1C1CCC1
218 to 219 | CCCNC(=O)NS(=O)(=O)c1ccccc1Br
232 | NC(=O)C(Nc1ccc(Cl)cc1)c1c(Cl)ccc(N)c1Cl (stereo not drawn)
204 to 205 | Cc1oc(C=Cc2cccc(C(F)(F)F)c2)nc1C(=O)O
161 to 163 | CC(C)c1cccc(C(C)C)c1NC(=O)CN1CCN(CCSc2nc3ccccc3o2)CC1
122 to 125 | COC(=O)CCCOc1ccc2ccc(O)cc2c1
186 to 189 | O=C(O)CCCc1cc2nc(Cl)ccc2n1S(=O)(=O)c1cccc2cccnc12
89 to 95 | Cc1ncncc1C(=O)Nc1ccc(-n2nc(C3CC3)cc2C2CC2)cc1

melting point [°C] | Compound
115 to 116 | O=C(NCc1ccccn1)c1cc(OCC(F)(F)F)ccc1OCc1ccccc1
175 to 179 | Cc1ccc2oc(=O)c(C(=O)Oc3cc(Cl)ccc3Cl)cc2c1
168 to 169 | COc1cc(COc2nn(C)cc2C(N)=O)ccc1OCc1nc(-c2ccccc2)oc1C
159 to 160 | CCOCc1nc2c(N)nc3cc(-n4cccn4)ccc3c2n1CCCOC
270 to 273 | CC(C)(C)CNc1nc(Nc2cccc(NS(C)(=O)=O)c2)nc2[nH]cnc12
220 to 221 | CC(C)n1nc(-c2sc(NC(=O)c3ccccc3Cl)nc2-c2ccccc2)ccc1=O
225 to 226 | CN(c1cccc2cc(-c3ncc(CN4CCS(=O)(=O)CC4)s3)[nH]c12)S(=O)(=O)c1cccs1
202 to 203 | CCS(=O)(=O)c1cccc(-c2nc(=O)c3ccccc3s2)n1
84 to 85 | CC(C)(C)OC(=O)NC(Cc1ccc(OC(=O)OCc2ccccc2)cc1)C(=O)O (stereo not drawn)
135 to 136 | O=C(Nc1c(C(O)(C(F)(F)F)C(F)(F)F)ccc2ccccc12)c1ccc(F)cc1
110 to 111 | COc1cccc(Nc2cnc3c(NCc4ccccc4)nc(NCCO)nc3c2)c1
191 to 192 | Cc1ccc(NC(=O)N2CC(Oc3cccc(C(F)(F)F)c3)C2)cc1
131 to 132 | COc1cc2ncnc(N3CCN(C(=S)NCc4ccc(OC(F)(F)F)cc4)CC3)c2cc1OC
89 to 90 | COc1ccc(C(=O)c2coc3ccccc23)cc1
117 to 118 | CC(=O)c1sc(-c2ccncc2)c(C)c1-c1ccncc1
164 to 166 | COc1ccc2cc(-c3ccc(S(C)=O)cc3)ccc2n1 (stereo not drawn)
138 to 140 | CN(Cc1cccc2c1C(=O)N(C1CCC(=O)NC1=O)C2=O)C(=O)OC(C)(C)C (stereo not drawn)
61 to 67 | Clc1ccc2c(c1)C1(CO1)c1ccccc1C21CO1 (stereo not drawn)
187 to 189 | CNC(=O)[C@@H](NC(=O)Nc1n[nH]c(=S)s1)C(C)OCc1ccccc1 (stereo partly drawn)
255 to 256 | O=C(c1ccc([N+](=O)[O-])cc1)N1CCc2cn[nH]c2-c2ncccc21

The remaining lines, values behind:

Compound | melting point [°C]
CCN1C(=O)Cc2cc3c(cc21)C(O)CO3 (stereo not drawn) | 144 to 145
NC(=O)CN1CCC1=O | 112 to 113
C[C@H]1COc2c(N3C[C@@H]4CCOC[C@@]4(N)C3)c(F)cc3c(=O)c(C(=O)O)cn1c23 | > 300
OCc1ccc2ccc3cccc4ccc1c2c34 | 125 to 126
CCCCCCCCCCCCCCCCCC(=O)OC1CC(C)(C)N(OC(C)=O)C(CC)(CC)C1 (stereo not drawn) | 41 to 44
CC(=CC(=O)Nc1ccc(C(=O)O)cc1)c1cc(C(C)C)c(C(C)C)o1 | 232 to 235
CC(=O)c1ccc(OC(C)(C)C(=O)O)c(Cl)c1 | 123 to 125
CN1C(=O)C(NC(=O)Nc2cccc(Br)c2)N(C)C1=O (stereo not drawn) | 173 to 182
Cc1c(C)c2c(c(C)c1NC(=O)C(C)(C)C)C(c1ccc(C(C)C)cc1)CO2 (stereo not drawn) | 177 to 178
O=c1cc(CBr)c2cc(O)ccc2o1 | 198 to 200
CCCCCCCCOc1cc(OC)ccc1C=O | 37 to 39
CCOC(=O)c1cc(N=c2sc(=S)n3n2CCCC3)c(F)cc1F | 91 to 92
CCCCc1cc(SCc2ccc(-c3ccc(C(F)(F)F)cc3)cc2)ccc1OCC(=O)O | 155 to 157
COc1cc2c(cc1OC)CN(C(=O)Cc1ccc(OC)c([N+](=O)[O-])c1)CC2 | 175
COc1ccc(-c2[nH]cnc2-c2cc(OC)c(O)c(OC)c2)cc1N | 148 to 150
C[C@@H](c1ccccc1)N1CC[C@@H](C2(N(Cc3ccccc3)Cc3ccccc3)CC2)C1 | 61 to 61.3

Compound | melting point [°C]
N#CCCNC(=O)c1n[nH]cc1NC(=O)c1ccc(Br)o1 | 220 to 222
COCOc1ccc2c(c1)OC(C)(C)CC2=O | 77 to 79
NC(=N[N+](=O)[O-])NCCSCc1csc(NC(N)=NCC(F)(F)Cl)n1 | 112 to 116
Cc1cc(NCCO)c([N+](=O)[O-])cc1O | 174
Cc1oc(C(C)(C)C)nc1COc1ccc(CC(OC(C)C)C(=O)O)c2sccc12 (stereo not drawn) | 166 to 167
CCCc1nc(CO)c[nH]1 | 95 to 101
CCOC(=O)c1ccc(N2C(=O)CCC2CO)c(NC(=NC(=O)OC(C)(C)C)NC(=O)OC(C)(C)C)c1 (stereo not drawn) | 104 to 110
O=C1CCC2=C(CCc3cc(F)ccc32)N1 | 223 to 224
CSc1cccc(NC(=O)N(O)C2CCCCC2)c1 | 147 to 148
O=C1CCCc2cc(F)cc(F)c21 | 57 to 58
CNC(=O)OC(C)C(=O)Nc1ccc(C2=NNC(=O)CC2C)cc1 (stereo not drawn) | 96 to 98
CC12CC(=O)C3C(CCC4CC(O)CCC43C)C1CCC2C(=O)CCOC(=O)CCl (stereo not drawn) | 95 to 97
CN1CCN(Cc2c(Cl)cccc2Cl)C(C2=NCCN2)C1 (stereo not drawn) | 182 to 184
CCOC(=O)Nc1cc([N+](=O)[O-])cc(CC)c1C(=O)OCC | 47 to 48
CN(C)C=Nc1c(F)ccc(F)c1C#N | 56 to 60
Cc1c(CCCO)c2c(c(C)c1NC(=O)NCCO)C(c1ccc(C(C)C)cc1)CO2 (stereo not drawn) | 153 to 154
